Test results published in the supplement of paper PMC10307832.

Compound: CN1CCN(CC1)C2=CC(=C(C=C2)NC3=NC(=C(S3)C(=O)C4=C(C=CC=C4Cl)Cl)N)OC [XMD14-99] + Cc1cc(Nc2cc(N3CCN(C)CC3)nc(Sc3ccc(NC(=O)C4CC4)cc3)n2)n[nH]1 [Tozasertib] (partner 0.1 µM)
Experiment: relative viability (nuclei count vs DMSO), 5 days (fraction); higher = more cells survive
Settings: first compound 0.08 µM
Method in brief: (§1)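 For relative viability, nuclei counts in treated wells were divided by those in vehicle wells. Lung cancer cell lines had been pin-tool dosed in 1536-well plates the day after seeding and cultured for 5 days, then fixed and stained in one step (final 0.05% Triton X-100, 1% formaldehyde, 1 ug/ml Hoechst) and imaged at 4×. Doses were one drug alone or a fixed anchor-drug dose plus five library-drug doses (not always all listed) in √10 steps, and values are duplicate-plate medians.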

| Cell Line | relative viability |
| --- | --- |
| NCI-H522 | 0.513 |
| NCI-H1623 | 0.429 |
| NCI-H838 | 0.265 |
| NCI-H1650 | 0.351 |
| NCI-H2009 | 0.683 |
| NCI-H1993 | 0.602 |
| PC-14 | 0.584 |
| LCLC-103H | 0.494 |
| NCI-H596 | 0.881 |
| NCI-H2228 | 0.234 |
| EMC-BAC-2 | 0.28 |
| NCI-H2087 | 0.225 |
| HCC-366 | 0.117 |
| NCI-H1666 | 0.61 |
| NCI-H647 | 0.203 |
| LK-2 | 0.171 |
| NCI-H2126 | 0.811 |
| NCI-H2342 | 0.483 |
| SK-MES-1 | 0.925 |

| Cell Line | relative viability |
| --- | --- |
| H3255 | 0.721 |
| COR-L23 | 0.18 |
| COR-L 105 | 0.295 |
| LOU-NH91 | 0.709 |
| ChaGo-K-1 | 0.217 |
| NCI-H2170 | 0.702 |
| NCI-H3122 | 0.407 |
| HOP-62 | 0.375 |
| HCC-44 | 1 |
| SW 900 | 0.665 |
| LU99A | 0.294 |
| BEN | 0.478 |
| HARA | 0.122 |
| NCI-H1648 | 0.362 |
| NCI-H2023 | 0.396 |
| NCI-H520 | 0.432 |
| SW 1573 | 0.168 |
| SK-LU-1 | 0.34 |
| NCI-H661 | 0.355 |

Same assay, conditions: first compound 0.8 µM

| Cell Line | relative viability |
| --- | --- |
| NCI-H522 | 0.646 |
| NCI-H1623 | 0.429 |
| NCI-H838 | 0.24 |
| NCI-H1650 | 0.422 |
| NCI-H2009 | 0.617 |
| NCI-H1993 | 0.68 |
| PC-14 | 0.572 |
| LCLC-103H | 0.487 |
| NCI-H596 | 0.839 |
| NCI-H2228 | 0.258 |
| EMC-BAC-2 | 0.249 |
| NCI-H2087 | 0.253 |
| HCC-366 | 0.109 |
| NCI-H1666 | 0.582 |
| NCI-H647 | 0.375 |
| LK-2 | 0.185 |
| NCI-H2126 | 0.806 |
| NCI-H2342 | 0.628 |
| SK-MES-1 | 0.861 |

| Cell Line | relative viability |
| --- | --- |
| H3255 | 0.606 |
| COR-L23 | 0.211 |
| COR-L 105 | 0.426 |
| LOU-NH91 | 0.631 |
| ChaGo-K-1 | 0.199 |
| NCI-H2170 | 0.667 |
| NCI-H3122 | 0.314 |
| HOP-62 | 0.341 |
| HCC-44 | 0.921 |
| SW 900 | 0.453 |
| LU99A | 0.236 |
| BEN | 0.471 |
| HARA | 0.0974 |
| NCI-H1648 | 0.292 |
| NCI-H2023 | 0.332 |
| NCI-H520 | 0.438 |
| SW 1573 | 0.286 |
| SK-LU-1 | 0.298 |
| NCI-H661 | 0.337 |

Same assay, conditions: first compound 2.53 µM

| Cell Line | relative viability |
| --- | --- |
| NCI-H522 | 0.712 |
| NCI-H1623 | 0.38 |
| NCI-H838 | 0.269 |
| NCI-H1650 | 0.319 |
| NCI-H2009 | 0.541 |
| NCI-H1993 | 0.549 |
| PC-14 | 0.599 |
| LCLC-103H | 0.465 |
| NCI-H596 | 0.892 |
| NCI-H2228 | 0.187 |
| EMC-BAC-2 | 0.27 |
| NCI-H2087 | 0.228 |
| HCC-366 | 0.657 |
| NCI-H1666 | 0.498 |
| NCI-H647 | 0.218 |
| LK-2 | 0.171 |
| NCI-H2126 | 0.791 |
| NCI-H2342 | 0.591 |
| SK-MES-1 | 0.761 |

| Cell Line | relative viability |
| --- | --- |
| H3255 | 0.563 |
| COR-L23 | 0.182 |
| COR-L 105 | 0.33 |
| LOU-NH91 | 0.645 |
| ChaGo-K-1 | 0.208 |
| NCI-H2170 | 0.696 |
| NCI-H3122 | 0.295 |
| HOP-62 | 0.351 |
| HCC-44 | 0.929 |
| SW 900 | 0.451 |
| LU99A | 0.212 |
| BEN | 0.5 |
| HARA | 0.258 |
| NCI-H1648 | 0.316 |
| NCI-H2023 | 0.302 |
| NCI-H520 | 0.363 |
| SW 1573 | 0.198 |
| SK-LU-1 | 0.355 |
| NCI-H661 | 0.37 |

Same assay, conditions: first compound 8 µM

| Cell Line | relative viability |
| --- | --- |
| NCI-H522 | 0.639 |
| NCI-H1623 | 0.394 |
| NCI-H838 | 0.194 |
| NCI-H1650 | 0.258 |
| NCI-H2009 | 0.399 |
| NCI-H1993 | 0.571 |
| PC-14 | 0.368 |
| LCLC-103H | 0.44 |
| NCI-H596 | 0.803 |
| NCI-H2228 | 0.148 |
| EMC-BAC-2 | 0.254 |
| NCI-H2087 | 0.169 |
| HCC-366 | 0.0463 |
| NCI-H1666 | 0.537 |
| NCI-H647 | 0.114 |
| LK-2 | 0.192 |
| NCI-H2126 | 0.693 |
| NCI-H2342 | 0.516 |
| SK-MES-1 | 0.5 |

| Cell Line | relative viability |
| --- | --- |
| H3255 | 0.454 |
| COR-L23 | 0.151 |
| COR-L 105 | 0.328 |
| LOU-NH91 | 0.533 |
| ChaGo-K-1 | 0.226 |
| NCI-H2170 | 0.575 |
| NCI-H3122 | 0.179 |
| HOP-62 | 0.241 |
| HCC-44 | 0.605 |
| SW 900 | 0.37 |
| LU99A | 0.196 |
| BEN | 0.428 |
| HARA | 0.0954 |
| NCI-H1648 | 0.253 |
| NCI-H2023 | 0.185 |
| NCI-H520 | 0.338 |
| SW 1573 | 0.21 |
| SK-LU-1 | 0.254 |
| NCI-H661 | 0.338 |

Compound: CN1CCN(CC1)C2=CC(=C(C=C2)NC3=NC(=C(S3)C(=O)C4=C(C=CC=C4Cl)Cl)N)OC [XMD14-99] + COc1cc2c(Oc3ccc(NC(=O)C4(C(=O)Nc5ccc(F)cc5)CC4)cc3F)ccnc2cc1OCCCN1CCOCC1 [Foretinib] (partner 0.25 µM)
Experiment: as above
Settings: first compound 0.08 µM
Method in brief: as §1

| Cell Line | relative viability |
| --- | --- |
| NCI-H1623 | 0.852 |
| NCI-H838 | 1.01 |
| NCI-H1650 | 1.14 |
| EBC-1 | 0.113 |
